According to patent publication US8722849B2, “Polypeptides” (Novo Nordisk A/S, priority 2011, dated 2014):
Starred links: 1 amine or outer side, 2 acyl side, 3 side chain; linkers in the order of their positions; H or OH if unused. Positions of bridges follow the written chain, without caps; N, C: chain ends. Residues, ends and D or L forms follow the SMILES beside them. *: point of attachment. C20 diacid = O=C(O)CCCCCCCCCCCCCCCCCCC(=O)*; γGlu = O=C(O)[C@H](CCC(=O)[*:2])N[*:1]

Tests used:
[1] = molecular target: T1, human amylin receptor (amylin 3(a) receptor: human calcitonin receptor + RAMP-3) (Homo sapiens, UniProt O60896+P30988); assay: Assay (II)a functional CRE-luciferase assay, human amylin receptor; assay type: cell-based; conditions: Table 2; BHK amylin 3(a)-receptor/CRE-luc cells
T1 construct: expressed in transfected cells; host or cells: BHK570
T1 sequence (P30988 25-474): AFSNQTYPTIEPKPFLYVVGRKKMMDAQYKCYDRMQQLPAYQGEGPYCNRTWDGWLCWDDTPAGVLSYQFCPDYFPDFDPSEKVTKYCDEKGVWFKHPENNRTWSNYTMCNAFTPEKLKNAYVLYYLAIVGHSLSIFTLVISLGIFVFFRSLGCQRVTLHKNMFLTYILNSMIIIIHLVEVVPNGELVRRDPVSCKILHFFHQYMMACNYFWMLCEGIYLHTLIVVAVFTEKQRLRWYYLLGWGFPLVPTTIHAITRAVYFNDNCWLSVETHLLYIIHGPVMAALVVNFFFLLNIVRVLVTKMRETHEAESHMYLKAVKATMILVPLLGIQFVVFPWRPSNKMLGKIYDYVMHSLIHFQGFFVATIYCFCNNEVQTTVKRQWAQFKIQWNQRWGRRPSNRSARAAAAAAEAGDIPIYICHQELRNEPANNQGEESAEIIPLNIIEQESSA
T1 sequence (O60896 24-148 partner): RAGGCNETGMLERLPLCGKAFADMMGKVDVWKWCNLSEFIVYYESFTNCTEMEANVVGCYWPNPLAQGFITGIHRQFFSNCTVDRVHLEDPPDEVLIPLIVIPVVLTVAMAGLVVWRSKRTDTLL

[2] = test system: food intake; assay: Assay (I) efficacy testing on appetite (food intake), ad libitum fed rat model; assay type: in vivo, Sprague Dawley (SD) rats
Method in brief: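 Sprague Dawley rats (200–250 g), single-housed under reversed light cycle with free food and water, got one ip, po or sc dose of 0.01–3 mg/kg just before lights-off. Individual food intake recorded hourly for 7 h, then at 24 h and sometimes 48 h; groups of 5–8, Grubbs outliers excluded.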

| SMILES | EC50 [1] | Food intake reduction 0-24 h 3 nmol/kg (%) ([2]; 0-24 h) | Food intake reduction 0-24 h 30 nmol/kg (%) ([2]; 0-24 h, 30 nmol/kg) | Food intake reduction 24-48 h 3 nmol/kg (%) ([2]; 24-48 h) | Food intake reduction 24-48 h 30 nmol/kg (%) ([2]; 24-48 h, 30 nmol/kg) |
| --- | --- | --- | --- | --- | --- |
| CC[C@H](C)[C@H](NC(=O)[C@@H]1CCCN1C(=O)CNC(=O)[C@H](Cc1ccccc1)NC(=O)[C@H](CC(N)=O)NC(=O)[C@H](CC(N)=O)NC(=O)[C@H](CO)NC(=O)[C@H](CO)NC(=O)[C@H](CCCNC(=N)N)NC(=O)[C@H](Cc1c[nH]cn1)NC(=O)[C@H](CC(C)C)NC(=O)[C@H](Cc1ccccc1)NC(=O)[C@H](CCC(=O)O)NC(=O)[C@H](C)NC(=O)[C@H](CC(C)C)NC(=O)[C@H](CCCNC(=N)N)NC(=O)[C@H](CCC(N)=O)NC(=O)[C@@H](NC(=O)[C@H](C)NC(=O)[C@@H]1CSSC[C@H](NC(=O)[C@H](Cc2c[nH]cn2)NC(=O)CC[C@H](NC(=O)CCCCCCCCCCCCCCCCCCC(=O)O)C(=O)O)C(=O)N[C@@H](CC(N)=O)C(=O)N[C@@H]([C@@H](C)O)C(=O)N[C@@H](C)C(=O)N[C@@H]([C@@H](C)O)C(=O)N1)[C@@H](C)O)C(=O)N[C@@H](CC(C)C)C(=O)N1CCC[C@H]1C(=O)N1CCC[C@H]1C(=O)N[C@H](C(=O)N[C@@H](CC(N)=O)C(=O)N[C@H](C(=O)NCC(=O)N[C@@H](CO)C(=O)N[C@@H](CC(N)=O)C(=O)N[C@H](C(=O)N[C@@H](Cc1ccc(O)cc1)C(N)=O)[C@@H](C)O)C(C)C)[C@@H](C)O [Example 1, N-alpha-[(S)-4-Carboxy-4-(19-carboxynonadecanoylamino)butyryl]-[His1,Glu14,His17,Arg18]-pramlintide] ({C20 diacid-γGlu}-HCNTATCATQRLAEFLHRSSNNFGPILPPTNVGSNTY-NH2; disulfide 2-7 (inferred)) | 0.0934 nM | 50% | 93% | 45% | 92% |
| CC[C@H](C)[C@H](NC(=O)[C@H](CCC(=O)O)NC(=O)CNC(=O)[C@H](Cc1ccccc1)NC(=O)[C@H](CC(N)=O)NC(=O)[C@H](CC(N)=O)NC(=O)[C@H](CO)NC(=O)[C@H](CO)NC(=O)[C@H](CCCNC(=N)N)NC(=O)[C@H](Cc1c[nH]cn1)NC(=O)[C@H](CC(C)C)NC(=O)[C@H](Cc1ccccc1)NC(=O)[C@H](CCC(=O)O)NC(=O)[C@H](C)NC(=O)[C@H](CC(C)C)NC(=O)[C@H](CCCNC(=N)N)NC(=O)[C@H](CCC(N)=O)NC(=O)[C@@H](NC(=O)[C@H](C)NC(=O)[C@@H]1CSSC[C@H](NC(=O)[C@H](Cc2c[nH]cn2)NC(=O)CC[C@H](NC(=O)CCCCCCCCCCCCCCCCCCC(=O)O)C(=O)O)C(=O)N[C@@H](CC(N)=O)C(=O)N[C@@H]([C@@H](C)O)C(=O)N[C@@H](C)C(=O)N[C@@H]([C@@H](C)O)C(=O)N1)[C@@H](C)O)C(=O)N[C@@H](CC(C)C)C(=O)N[C@@H](CO)C(=O)N[C@@H](CCCNC(=N)N)C(=O)N[C@H](C(=O)N[C@@H](CC(N)=O)C(=O)N[C@H](C(=O)NCC(=O)N[C@@H](CO)C(=O)N[C@@H](CC(N)=O)C(=O)N[C@H](C(=O)N[C@@H](Cc1ccc(O)cc1)C(N)=O)[C@@H](C)O)C(C)C)[C@@H](C)O [Example 7, N-alpha-[(S)-4-Carboxy-4-(19-carboxynonadecanoylamino)butyryl]-[His1,Glu14,His17,Arg18,Glu25,Ser28,Arg29]-pramlintide] ({C20 diacid-γGlu}-HCNTATCATQRLAEFLHRSSNNFGEILSRTNVGSNTY-NH2; disulfide 2-7 (inferred); C-terminus assumed) | 0.0779 nM | 53% | – | 46% | – |
| CC[C@H](C)[C@H](NC(=O)[C@@H]1CCCN1C(=O)CNC(=O)[C@H](Cc1ccccc1)NC(=O)[C@H](CC(N)=O)NC(=O)[C@H](CC(N)=O)NC(=O)[C@H](CO)NC(=O)[C@H](CO)NC(=O)[C@H](CCCNC(=N)N)NC(=O)[C@H](Cc1c[nH]cn1)NC(=O)[C@H](CC(C)C)NC(=O)[C@H](Cc1ccccc1)NC(=O)[C@H](CCC(=O)O)NC(=O)[C@H](C)NC(=O)[C@H](CC(C)C)NC(=O)[C@H](CCCNC(=N)N)NC(=O)[C@H](CCC(N)=O)NC(=O)[C@@H](NC(=O)[C@H](C)NC(=O)[C@@H]1CSSC[C@H](NC(=O)[C@H](CCC(=O)O)NC(=O)CC[C@H](NC(=O)CCCCCCCCCCCCCCCCCCC(=O)O)C(=O)O)C(=O)N[C@@H](CC(N)=O)C(=O)N[C@@H]([C@@H](C)O)C(=O)N[C@@H](C)C(=O)N[C@@H]([C@@H](C)O)C(=O)N1)[C@@H](C)O)C(=O)N[C@@H](CC(C)C)C(=O)N1CCC[C@H]1C(=O)N1CCC[C@H]1C(=O)N[C@H](C(=O)N[C@@H](CC(N)=O)C(=O)N[C@H](C(=O)NCC(=O)N[C@@H](CO)C(=O)N[C@@H](CC(N)=O)C(=O)N[C@H](C(=O)N1CCC[C@H]1C(N)=O)[C@@H](C)O)C(C)C)[C@@H](C)O [Example 10, N-alpha-[(S)-4-Carboxy-4-(19-carboxynonadecanoylamino)butyryl]-[Glu1,Glu14,His17,Arg18,Pro37]-pramlintide] ({C20 diacid-γGlu}-ECNTATCATQRLAEFLHRSSNNFGPILPPTNVGSNTP-NH2; disulfide 2-7) | 0.0823 nM | 50% | – | 40% | – |
| CC[C@H](C)[C@H](NC(=O)[C@@H]1CCCN1C(=O)CNC(=O)[C@H](Cc1ccccc1)NC(=O)[C@H](CC(N)=O)NC(=O)[C@H](CC(N)=O)NC(=O)[C@H](CO)NC(=O)[C@H](CO)NC(=O)[C@H](Cc1c[nH]cn1)NC(=O)[C@H](Cc1c[nH]cn1)NC(=O)[C@H](CC(C)C)NC(=O)[C@H](Cc1ccccc1)NC(=O)[C@H](CCC(=O)O)NC(=O)[C@H](C)NC(=O)[C@H](CC(C)C)NC(=O)[C@H](CCCNC(=N)N)NC(=O)[C@H](CCC(N)=O)NC(=O)[C@@H](NC(=O)[C@H](C)NC(=O)[C@@H]1CSSC[C@H](NC(=O)[C@H](Cc2c[nH]cn2)NC(=O)CC[C@H](NC(=O)CCCCCCCCCCCCCCCCCCC(=O)O)C(=O)O)C(=O)N[C@@H](CC(N)=O)C(=O)N[C@@H]([C@@H](C)O)C(=O)N[C@@H](C)C(=O)N[C@@H]([C@@H](C)O)C(=O)N1)[C@@H](C)O)C(=O)N[C@@H](CC(C)C)C(=O)N1CCC[C@H]1C(=O)N1CCC[C@H]1C(=O)N[C@H](C(=O)N[C@@H](CC(N)=O)C(=O)N[C@H](C(=O)NCC(=O)N[C@@H](CO)C(=O)N[C@@H](CC(N)=O)C(=O)N[C@H](C(=O)N[C@@H](Cc1ccc(O)cc1)C(N)=O)[C@@H](C)O)C(C)C)[C@@H](C)O [Example 18, N-alpha-[(S)-4-Carboxy-4-(19-carboxynonadecanoylamino)butyryl]-[His1,Glu14,His17]-pramlintide] ({C20 diacid-γGlu}-HCNTATCATQRLAEFLHHSSNNFGPILPPTNVGSNTY-NH2; disulfide 2-7 (inferred); C-terminus assumed) | 0.131 nM | 40% | – | 32% | – |
| CC[C@H](C)[C@H](NC(=O)[C@@H]1CCCN1C(=O)CNC(=O)[C@H](Cc1ccccc1)NC(=O)[C@H](CC(N)=O)NC(=O)[C@H](CC(N)=O)NC(=O)[C@H](CO)NC(=O)[C@H](CO)NC(=O)[C@H](Cc1c[nH]cn1)NC(=O)[C@@H](NC(=O)[C@H](CC(C)C)NC(=O)[C@H](Cc1ccccc1)NC(=O)[C@H](CCC(=O)O)NC(=O)[C@H](C)NC(=O)[C@H](CC(C)C)NC(=O)[C@H](CCCNC(=N)N)NC(=O)[C@H](CCC(N)=O)NC(=O)[C@@H](NC(=O)[C@H](C)NC(=O)[C@@H]1CSSC[C@H](NC(=O)[C@H](CCCCN)NC(=O)CC[C@H](NC(=O)CCCCCCCCCCCCCCCCCCC(=O)O)C(=O)O)C(=O)N[C@@H](CC(N)=O)C(=O)N[C@@H]([C@@H](C)O)C(=O)N[C@@H](C)C(=O)N[C@@H]([C@@H](C)O)C(=O)N1)[C@@H](C)O)C(C)C)C(=O)N[C@@H](CC(C)C)C(=O)N1CCC[C@H]1C(=O)N1CCC[C@H]1C(=O)N[C@H](C(=O)N[C@@H](CC(N)=O)C(=O)N[C@H](C(=O)NCC(=O)N[C@@H](CO)C(=O)N[C@@H](Cc1c[nH]cn1)C(=O)N[C@H](C(=O)N[C@@H](Cc1ccc(O)cc1)C(N)=O)[C@@H](C)O)C(C)C)[C@@H](C)O [Example 93, N-alpha-[(S)-4-Carboxy-4-(19-carboxynonadecanoylamino)butyryl]-[Glu14,His35]-pramlintide] ({C20 diacid-γGlu}-KCNTATCATQRLAEFLVHSSNNFGPILPPTNVGSHTY-NH2; disulfide 2-7 (inferred); C-terminus assumed) | 0.136 nM | – | – | – | – |
